Source: PubChem BioAssay (NCI)
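Interpolation was linear, between the two tested concentrations surrounding the appropriate level; five concentrations were tested over 48 hours in 96-well plates. TGI is the concentration that stops growth completely.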

Columns and labels:
Assay in all cases: growth of human tumour cells (NCI), 48 h
786-0 renal = tested on: 786-0 renal
A498 renal = tested on: A498 renal
A549 NSCLC = tested on: A549 NSCLC
ACHN renal = tested on: ACHN renal
BT-549 breast = tested on: BT-549 breast
CCRF-CEM leukemia = tested on: CCRF-CEM leukemia
COLO 205 colon = tested on: COLO 205 colon
DLD-1 colon = tested on: DLD-1 colon
DMS 273 small cell lung = tested on: DMS 273 small cell lung
DU-145 prostate = tested on: DU-145 prostate
EKVX NSCLC = tested on: EKVX NSCLC
HCC-2998 colon = tested on: HCC-2998 colon
HCT-116 colon = tested on: HCT-116 colon
HCT-15 colon = tested on: HCT-15 colon
HL-60(TB) leukemia = tested on: HL-60(TB) leukemia
HOP-18 NSCLC = tested on: HOP-18 NSCLC
HOP-62 NSCLC = tested on: HOP-62 NSCLC
HOP-92 NSCLC = tested on: HOP-92 NSCLC
HS 578T breast = tested on: HS 578T breast
HT29 colon = tested on: HT29 colon
IGROV1 ovarian = tested on: IGROV1 ovarian
K-562 leukemia = tested on: K-562 leukemia
KM12 colon = tested on: KM12 colon
KM20L2 colon = tested on: KM20L2 colon
LOX IMVI melanoma = tested on: LOX IMVI melanoma
LXFL 529 NSCLC = tested on: LXFL 529 NSCLC
M14 melanoma = tested on: M14 melanoma
M19-MEL melanoma = tested on: M19-MEL melanoma
MALME-3M melanoma = tested on: MALME-3M melanoma
MCF7 breast = tested on: MCF7 breast
MDA-MB-231 breast = tested on: MDA-MB-231 breast
MDA-MB-435 = tested on: MDA-MB-435
MDA-N = tested on: MDA-N
MOLT-4 leukemia = tested on: MOLT-4 leukemia
NCI-H226 lung = tested on: NCI-H226 lung
NCI-H23 lung = tested on: NCI-H23 lung
NCI-H460 lung = tested on: NCI-H460 lung
NCI-H522 lung = tested on: NCI-H522 lung
NCI/ADR-RES ovarian = tested on: NCI/ADR-RES ovarian
OVCAR-3 ovarian = tested on: OVCAR-3 ovarian
OVCAR-4 ovarian = tested on: OVCAR-4 ovarian
OVCAR-5 ovarian = tested on: OVCAR-5 ovarian
OVCAR-8 ovarian = tested on: OVCAR-8 ovarian
PC-3 prostate = tested on: PC-3 prostate
RPMI-8226 leukemia = tested on: RPMI-8226 leukemia
RXF 393 renal = tested on: RXF 393 renal
RXF-631 renal = tested on: RXF-631 renal
SF-268 CNS = tested on: SF-268 CNS
SF-539 CNS = tested on: SF-539 CNS
SK-MEL-2 melanoma = tested on: SK-MEL-2 melanoma
SK-MEL-28 melanoma = tested on: SK-MEL-28 melanoma
SK-MEL-5 melanoma = tested on: SK-MEL-5 melanoma
SK-OV-3 ovarian = tested on: SK-OV-3 ovarian
SN12C renal = tested on: SN12C renal
SNB-19 CNS = tested on: SNB-19 CNS
SNB-75 CNS = tested on: SNB-75 CNS
SNB-78 CNS = tested on: SNB-78 CNS
SW-620 colon = tested on: SW-620 colon
TK-10 renal = tested on: TK-10 renal
U251 CNS = tested on: U251 CNS
UACC-257 melanoma = tested on: UACC-257 melanoma
UACC-62 melanoma = tested on: UACC-62 melanoma
UO-31 renal = tested on: UO-31 renal
SF-295 CNS = tested on: SF-295 CNS
SR leukemia = tested on: SR leukemia
XF 498 CNS = tested on: XF 498 CNS
CAKI-1 renal = tested on: CAKI-1 renal
DMS 114 small cell lung = tested on: DMS 114 small cell lung

CCC1(OC(=O)CNC)C(=O)OCc2c1cc1n(c2=O)Cc2cc3ccccc3nc2-1 (configuration not stated)
TGI (786-0 renal): 0.0152 µM
TGI (A498 renal): 0.104 µM
TGI (A549 NSCLC): 0.958 µM
TGI (ACHN renal): 0.0184 µM
TGI (BT-549 breast): 5.11 µM
TGI (CCRF-CEM leukemia): 0.468 µM
TGI (COLO 205 colon): 1.54 µM
TGI (DLD-1 colon): 26.8 µM
TGI (DMS 273 small cell lung): < 0.0144 µM
TGI (DU-145 prostate): 0.0124 µM
TGI (EKVX NSCLC): 17 µM
TGI (HCC-2998 colon): 1.57 µM
TGI (HCT-116 colon): 0.264 µM
TGI (HCT-15 colon): > 100 µM
TGI (HL-60(TB) leukemia): 0.159 µM
TGI (HOP-18 NSCLC): 0.812 µM
TGI (HOP-62 NSCLC): < 0.0143 µM
TGI (HOP-92 NSCLC): 1.56 µM
TGI (HS 578T breast): 40.8 µM
TGI (HT29 colon): 2.64 µM
TGI (IGROV1 ovarian): 2.21 µM
TGI (K-562 leukemia): > 60.1 µM
TGI (KM12 colon): 1.46 µM
TGI (KM20L2 colon): 2.05 µM
TGI (LOX IMVI melanoma): 0.137 µM
TGI (LXFL 529 NSCLC): 3.64 µM
TGI (M14 melanoma): 1.27 µM
TGI (M19-MEL melanoma): 0.823 µM
TGI (MALME-3M melanoma): 1.31 µM
TGI (MCF7 breast): 0.198 µM
TGI (MDA-MB-231 breast): 3.94 µM
TGI (MDA-MB-435): 0.279 µM
TGI (MDA-N): 0.386 µM
TGI (MOLT-4 leukemia): 0.0631 µM
TGI (NCI-H226 lung): 0.0641 µM
TGI (NCI-H23 lung): 0.11 µM
TGI (NCI-H460 lung): 0.399 µM
TGI (NCI-H522 lung): 0.285 µM
TGI (NCI/ADR-RES ovarian): 0.0151 µM
TGI (OVCAR-3 ovarian): 0.401 µM
TGI (OVCAR-4 ovarian): 0.493 µM
TGI (OVCAR-5 ovarian): 0.221 µM
TGI (OVCAR-8 ovarian): > 24.4 µM
TGI (PC-3 prostate): > 100 µM
TGI (RPMI-8226 leukemia): 0.415 µM
TGI (RXF 393 renal): 0.115 µM
TGI (RXF-631 renal): 0.0575 µM
TGI (SF-268 CNS): 0.709 µM
TGI (SF-539 CNS): < 0.0203 µM
TGI (SK-MEL-2 melanoma): 0.577 µM
TGI (SK-MEL-28 melanoma): 2.7 µM
TGI (SK-MEL-5 melanoma): 0.0337 µM
TGI (SK-OV-3 ovarian): 0.152 µM
TGI (SN12C renal): 0.849 µM
TGI (SNB-19 CNS): 6.12 µM
TGI (SNB-75 CNS): 0.0842 µM
TGI (SNB-78 CNS): > 86.9 µM
TGI (SW-620 colon): 19.5 µM
TGI (TK-10 renal): 30.4 µM
TGI (U251 CNS): 0.293 µM
TGI (UACC-257 melanoma): 0.762 µM
TGI (UACC-62 melanoma): 0.0186 µM
TGI (UO-31 renal): 0.0856 µM

O=C(CSc1nnc(Cc2ccccc2)o1)Nc1ccc(Cl)cc1[N+](=O)[O-]
TGI (786-0 renal): 31 µM
TGI (A549 NSCLC): 35.6 µM
TGI (ACHN renal): 25.2 µM
TGI (CCRF-CEM leukemia): 54.4 µM
TGI (COLO 205 colon): 46.4 µM
TGI (DMS 273 small cell lung): 33.9 µM
TGI (EKVX NSCLC): 40.1 µM
TGI (HCT-116 colon): 27.7 µM
TGI (HCT-15 colon): 32.2 µM
TGI (HL-60(TB) leukemia): 61.5 µM
TGI (HOP-18 NSCLC): 28.3 µM
TGI (HOP-62 NSCLC): 31.3 µM
TGI (HT29 colon): 49.2 µM
TGI (K-562 leukemia): 98.7 µM
TGI (KM20L2 colon): 45.9 µM
TGI (LOX IMVI melanoma): 26.3 µM
TGI (LXFL 529 NSCLC): 40.8 µM
TGI (M14 melanoma): 32.9 µM
TGI (M19-MEL melanoma): 34.8 µM
TGI (MALME-3M melanoma): 30.2 µM
TGI (MOLT-4 leukemia): > 100 µM
TGI (NCI-H226 lung): 47.6 µM
TGI (NCI-H23 lung): 36 µM
TGI (NCI-H522 lung): 9.26 µM
TGI (OVCAR-4 ovarian): 33.9 µM
TGI (OVCAR-8 ovarian): > 100 µM
TGI (RPMI-8226 leukemia): 49.6 µM
TGI (RXF 393 renal): 33.4 µM
TGI (SF-268 CNS): 40.2 µM
TGI (SF-295 CNS): 34.2 µM
TGI (SK-MEL-2 melanoma): 29.8 µM
TGI (SK-MEL-28 melanoma): 29 µM
TGI (SK-MEL-5 melanoma): 30.9 µM
TGI (SK-OV-3 ovarian): > 100 µM
TGI (SN12C renal): 31.4 µM
TGI (SNB-19 CNS): 31 µM
TGI (SNB-75 CNS): 39.5 µM
TGI (SNB-78 CNS): 47.6 µM
TGI (SR leukemia): > 100 µM
TGI (SW-620 colon): 53.8 µM
TGI (TK-10 renal): 30.8 µM
TGI (U251 CNS): 34.8 µM
TGI (UACC-257 melanoma): 36.3 µM
TGI (UACC-62 melanoma): 30.5 µM
TGI (UO-31 renal): 49.4 µM
TGI (XF 498 CNS): 31.3 µM

Cc1cc(N(CCC#N)CCC#N)ccc1/C=C1N=C(/C=C/c2ccccc2)N(c2ccc(S(N)(=O)=O)cc2)C\1=O
TGI (786-0 renal): > 100 µM
TGI (A498 renal): > 100 µM
TGI (A549 NSCLC): > 100 µM
TGI (ACHN renal): > 100 µM
TGI (CAKI-1 renal): > 100 µM
TGI (CCRF-CEM leukemia): > 100 µM
TGI (COLO 205 colon): > 100 µM
TGI (DLD-1 colon): > 100 µM
TGI (DMS 114 small cell lung): > 100 µM
TGI (HCT-116 colon): > 100 µM
TGI (HCT-15 colon): > 100 µM
TGI (HL-60(TB) leukemia): > 100 µM
TGI (HOP-62 NSCLC): > 100 µM
TGI (HOP-92 NSCLC): > 100 µM
TGI (HT29 colon): > 100 µM
TGI (IGROV1 ovarian): > 100 µM
TGI (K-562 leukemia): > 100 µM
TGI (KM12 colon): > 100 µM
TGI (KM20L2 colon): > 100 µM
TGI (LOX IMVI melanoma): > 100 µM
TGI (LXFL 529 NSCLC): > 100 µM
TGI (M14 melanoma): > 100 µM
TGI (M19-MEL melanoma): > 100 µM
TGI (MALME-3M melanoma): > 100 µM
TGI (MOLT-4 leukemia): > 100 µM
TGI (NCI-H226 lung): > 100 µM
TGI (NCI-H23 lung): > 100 µM
TGI (NCI-H460 lung): > 100 µM
TGI (NCI-H522 lung): > 100 µM
TGI (OVCAR-3 ovarian): > 100 µM
TGI (OVCAR-4 ovarian): > 100 µM
TGI (OVCAR-5 ovarian): > 100 µM
TGI (OVCAR-8 ovarian): > 100 µM
TGI (RPMI-8226 leukemia): > 100 µM
TGI (RXF-631 renal): > 100 µM
TGI (SF-268 CNS): > 100 µM
TGI (SF-295 CNS): > 100 µM
TGI (SF-539 CNS): > 100 µM
TGI (SK-MEL-2 melanoma): > 100 µM
TGI (SK-MEL-28 melanoma): > 100 µM
TGI (SK-MEL-5 melanoma): > 100 µM
TGI (SK-OV-3 ovarian): > 100 µM
TGI (SN12C renal): > 100 µM
TGI (SNB-19 CNS): > 100 µM
TGI (SNB-75 CNS): > 100 µM
TGI (SNB-78 CNS): > 100 µM
TGI (SR leukemia): > 100 µM
TGI (SW-620 colon): > 100 µM
TGI (TK-10 renal): > 100 µM
TGI (U251 CNS): > 100 µM
TGI (UACC-257 melanoma): > 100 µM
TGI (UACC-62 melanoma): > 100 µM
TGI (UO-31 renal): > 100 µM
